Experimental data published in BindingDB's records for doi:10.1016/j.bmcl.2011.10.055 (Cephalon, 2011).

Target: Insulin receptor (Homo sapiens, UniProt P06213)
Assay: Inhibition of GST-tagged intracellular domain of IR by homogeneous time-resolved fluorescence assay

`C=c1nns/c1=c1\[nH][nH]c(=O)c1=Cc1cn(C)c2cccc(OCc3ccccc3)c12` showed an IC50 of over 10 µM.

For `C=c1nns/c1=c1\[nH][nH]c(=O)c1=Cc1cn(C)c2cccc(OCc3ccccc3F)c12`, the IC50 was over 10 µM.

`C=c1nns/c1=c1\[nH][nH]c(=O)c1=Cc1cn(C)c2cccc(OCc3cccc(F)c3)c12` showed an IC50 of over 10 µM.

In the case of `C=c1nns/c1=c1\[nH][nH]c(=O)c1=Cc1cn(C)c2cccc(OCc3ccc(F)cc3)c12`, the IC50 is reported as over 10 µM.

`C=c1nns/c1=c1\[nH][nH]c(=O)c1=Cc1cn(C)c2cccc(OCc3ccc(F)cc3F)c12` showed an IC50 of over 10 µM.
